According to patent US11549075B2, “Benzyl hemiformal-containing biodiesel mixtures” (LANXESS Deutschland GmbH, priority 2019, dated 2023):

What was measured:
[1] = Solubility of benzyl hemiformal in B7 diesel fuel (petrodiesel with 7% by volume of biodiesel); format: physicochemical; conditions: for Solubility of benzyl hemiformal in B7 diesel fuel: undiluted BHF
Description: 2) Benzyl Hemiformal—Solubility in B7 Diesel Fuel (Petrodiesel with 7% by Volume of Biodiesel)

[2] = Solubility of benzyl hemiformal in petrodiesel without biodiesel content; format: physicochemical; conditions: for Solubility of benzyl hemiformal in petrodiesel 100%: undiluted BHF stirred into petrodiesel
Method: 1) Benzyl Hemiformal—Solubility in Petrodiesel without Biodiesel Content
While stirring, BHF was mixed with petrodiesel in 0.01% steps. The following solubilities of BHF in petrodiesel were determined: […]

OCOCc1ccccc1 [benzyl hemiformal]
Solubility of benzyl hemiformal in B7 diesel fuel ([1]; 0.01 % BHF): dissolved to give clear solution
Solubility of benzyl hemiformal in B7 diesel fuel ([1]; 0.02 % BHF): dissolved to give clear solution
Solubility of benzyl hemiformal in B7 diesel fuel ([1]; 0.03 % BHF): undissolved fractions
Solubility of benzyl hemiformal in B7 diesel fuel ([1]; 0.04 % BHF): undissolved fractions
Amount of undiluted BHF that can be incorporated into B7 diesel fuel to give a clear solution ([1]; B7 diesel fuel): approx. 200 ppm
Solubility of benzyl hemiformal in petrodiesel 100% ([2]; 0.01 % BHF): dissolved to give clear solution
Solubility of benzyl hemiformal in petrodiesel 100% ([2]; 0.02 % BHF): dissolved to give clear solution
Solubility of benzyl hemiformal in petrodiesel 100% ([2]; 0.03 % BHF): undissolved fractions
Solubility of benzyl hemiformal in petrodiesel 100% ([2]; 0.04 % BHF): undissolved fractions
Solubility of BHF in petrodiesel (in words) ([2]; room temperature): only poorly soluble
Amount of undiluted BHF that can be incorporated into petrodiesel to give a clear solution ([2]; undiluted BHF, petrodiesel without biodiesel): approx. 200 ppm
